In patent publication US8372973B2, “Prokineticin 1 receptor antagonists” (Janssen Pharmaceutica N.V., priority 2005, dated 2013):
Several values for one entry are separate records, joined by “and”; a condition that tells them apart may be missing. Identical values can stand only once. Entries after “also recorded” stand apart in the source; their conditions may differ. Like-named read-outs stand apart in the source and are kept apart here.

How the values were obtained:
PK1 receptor = biological target: T1, PK1 receptor (Rattus norvegicus, UniProt Q8R416); experiment: Suppression of PK1-evoked increase in Isc in isolated rat ileum mucosa, Ussing-type chambers; conditions: 1 μM test compound, 15 min; PK1 10 and 100 nM cumulative
T1 construct: The PK1 evoked increase in Isc requires the presence of endogenous PK1 receptors; from tissue; host or cells: isolated rat ileum mucosa
T1 sequence (Q8R416 whole entry): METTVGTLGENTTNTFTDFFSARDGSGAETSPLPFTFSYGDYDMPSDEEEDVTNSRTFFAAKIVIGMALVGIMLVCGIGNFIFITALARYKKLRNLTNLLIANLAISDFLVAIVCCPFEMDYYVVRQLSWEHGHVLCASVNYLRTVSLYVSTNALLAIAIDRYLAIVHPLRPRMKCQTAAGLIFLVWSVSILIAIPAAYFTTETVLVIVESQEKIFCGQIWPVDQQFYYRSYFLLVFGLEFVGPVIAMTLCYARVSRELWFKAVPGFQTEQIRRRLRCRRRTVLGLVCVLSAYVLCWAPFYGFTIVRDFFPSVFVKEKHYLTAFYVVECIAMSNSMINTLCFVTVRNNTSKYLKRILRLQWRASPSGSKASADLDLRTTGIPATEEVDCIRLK
Description: Methodology. The basic methodology for Ussing-type ion flux chambers used in these studies was the same as that described in detail above with the following modifications to the experimental protocol. […] The responses to two sequential EFS were used to gauge tissue viability and comparability of the responses of individual tissues from each rat and between rats. Tissue conductance was measured at periodic intervals as changes in the amplitudes of brief short-circuit current responses evoked by application of 1 mV amplitude bi-polar pulses from a pulse generator using Ohm's Law. Three to four tissues from each rat were studied. The tissues from a given animal were grouped and assigned accordingly: one control tissue which received only vehicle followed by two consecutive doses of PK-1 ligand added in a cumulative fashion to the basolateral surface of the tissue; the remaining two to three tissues from the same animal were assigned to be exposed to a given PK-1 receptor antagonist (e.g., 3-4 tissues from 1 rat: Control, Antagonist1, Antagonist2, and/or Antagonist3). Test compound was added to the basolateral tissue side reservoir at a final concentration of 1 μM and allowed a 15 minute incubation period prior to challenge with the PK1 peptide. […]

[1] = system: Cholera toxin stimulated gut secretion; set-up: species or system rat
[2] = system: pro-secretory effect of carbachol; experiment: Selectivity test against carbachol-evoked secretion in rat ileum mucosa, Ussing-type chambers
[3] = biological target: T2, GPR73 (prokineticin 1 receptor) (Homo sapiens, UniProt Q8TCW9); experiment: PK1 functional assay: Ca2+ mobilization on the FLIPR; format: cell-based; conditions: for inhibition at 10 µM: read-out: Ca^2+ Mobilization % Inh @10 μM; for IC50: HEK 293 GPR73 expressing cells, PK1 ligand preparation at its EC50, read-out: Ca^2+ Mobilization IC50
T2 construct: expressed in transfected cells; host or cells: HEK 293
T2 sequence (Q8TCW9 whole entry, species assumed): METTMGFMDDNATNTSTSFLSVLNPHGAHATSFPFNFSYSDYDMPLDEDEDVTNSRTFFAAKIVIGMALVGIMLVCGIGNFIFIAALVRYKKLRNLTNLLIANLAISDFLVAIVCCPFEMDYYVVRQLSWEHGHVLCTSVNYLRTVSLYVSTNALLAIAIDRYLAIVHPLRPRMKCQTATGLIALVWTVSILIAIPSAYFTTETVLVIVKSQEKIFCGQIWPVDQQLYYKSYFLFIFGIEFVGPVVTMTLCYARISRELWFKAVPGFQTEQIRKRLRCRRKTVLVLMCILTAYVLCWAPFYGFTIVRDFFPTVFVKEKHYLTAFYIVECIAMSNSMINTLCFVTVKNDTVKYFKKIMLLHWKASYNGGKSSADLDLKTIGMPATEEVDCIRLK
Description: At a time of 24 h prior to running the assay, in cell culture media (DMEM containing high Glucose and L-glutamine, 10% FBS, 1% Pen/Streptomycin, 1% Sodium Pyruvate, 20 mM HEPES, Zeocin 200 mg/L), […] of 1.3*10^6/ml HEK 293 GPR73 (prokineticin 1 receptor) expressing cells were plated in a 96 well poly-d-lysine coated plate (Costar), and incubated at 37° C. and 5% CO2. On the day in which the assay was run, the media was removed and […] of 5× Calcium Plus Dye (Molecular Devices) which was previously resuspended with 200 mL of assay buffer [HBSS w/Ca^2+ and Mg^2+ w/o phenol red, 20 mM HEPES, 0.1% BSA, 10 mL probenecid (710 mg probenecid in 5 mL of 1N NaOH, to which was then added 5 mL HBSS containing 20 mM HEPES)] was added to each well of the 96-well plate. The plate was incubated at 37° C. and 5% CO2 for 30 min in dark. The plate was removed and allowed to reach RT for 15 min in the dark. The assay was then run on the FLIPR. In Brief: base line read for 1 min, compound added (25 μL) and incubated for 4 min, 15 seconds, PK1 ligand preparation added (25 μL) for a final concentration of a previously determined EC50 and fluorescence was counted for 1 min, 45 seconds. Baseline is described as the amount of relative fluorescence read when buffer alone is added to cells. Baseline was subtracted from all wells. Percent of control was calculated as follows:
(Baseline subtracted well value is divided by baseline subtracted max value)*100. Percent inhibition is 100 minus the percent of control value.
The IC50 is defined as the amount of a given compound required to inhibit 50% of the maximum signal that is generated by the concentration of PK1 preparation used in our assay. IC50 values were calculated using GraphPad Prism.

[4] = system: ileum mucosal tissues from PK1 receptor knock-out mice; experiment: PK1 effect on Isc in ileum mucosal tissues from PK1 receptor knock-out mice; conditions: exogenous PK1 peptide

For COc1ccc(Cn2c(NCc3cccnc3N)nc(=O)n(Cc3ccc(OC)cc3)c2=O)cc1 [Cpd 3, 6-[(2-Amino-pyridin-3-ylmethyl)-amino]-1,3-bis-(4-methoxy-benzyl)-1H-[1,3,5]triazine-2,4-dione], the “suppression of the PK1 evoked increase in Isc” value (PK1 receptor) was “suppresses; also recorded: significant surmountable antagonism”, the “suppression of Cholera toxin-evoked stimulation of gut secretion (in words)” value [1] was “suppresses” and the “suppression of the sustained increase in baseline Isc evoked by Cholera toxin” value [1] was 50-60%. The “suppression of the pro-secretory effect of carbachol (unrelated secretagogue)” value [2] was “without inhibiting” and the “suppression of the pro-secretory effect of carbachol (unrelated secretagogue)” value ([2]; two ascending cumulative carbachol concentrations, serosal side) was “without inhibiting; also recorded: failed to suppress”.

For COc1ccc(Cn2c(NCc3cccnc3)nc(=O)n(Cc3ccc(OC)cc3)c2=O)cc1 [Cpd 40], the inhibition at 10 µM ([3]; @10 μM compound) was 83% and the IC50 [3] was 557 nM.

For COc1ccc(Cn2c(=O)nc(NCc3cnc(C)cc3C)n(Cc3ccc(OC(F)F)cc3)c2=O)cc1 [Cpd 96], the inhibition at 10 µM ([3]; @10 μM compound) was 92%.

COc1ccc(Cn2c(=O)nc(NCc3cnc(C)cc3C)n(Cc3ccccc3OC)c2=O)cc1 [Cpd 106] was tested, and the “Ca^2+ Mobilization % Inh @10 μM” value ([3]; @10 μM compound, 10 µM) was 101%, the inhibition at 10 µM ([3]; @10 μM compound) was 99% and the IC50 [3] was 25 nM and 74 nM.

COc1ccccc1Cn1c(=O)nc(NCc2cnc(C)cc2C)n(Cc2ccc(OC(F)F)cc2)c1=O [Cpd 193] was tested, and the inhibition at 10 µM ([3]; @10 μM compound) was 39% and the IC50 [3] was greater than 10000 nM.

B1: PK1: Recombinant human prokineticin-1 from HEK 293 cells, FLAG epitope cleaved; mixture of full-length ligand and four C-terminal residue truncated product (protein)
chain: AVITGACERDVQCGAGTCCAISLWLRGLRMCTPLGREGEECHPGSHKVPFFRKRKHHTCPCLPNLLCSRFPDGRYRCSMDLKNINF
modifications: mixture with C-terminal truncated product; Recombinant N-terminal FLAG-tagged human prokineticin-1 after enterokinase cleavage of Flag-tag
In the case of B1, the “change in Isc compared to wild-type littermates” value [4] is reported as “failed to elicit a significant change”.
